Experimental data from US4956294A, “Culture of Streptoverticillium synroense for producing an antibacterial” (Merck & Co., Inc., priority 1989, dated 1990).
Values after ≈ are worked out from the molar mass of the structure shown. “Also recorded” adds a separate entry of the source.

What was measured:
[1] = tested on: B. distasonis Pen^r, Fox^r 3445; assay: Anaerobic agar dilution, Wilkens-Chalgren agar; format: cell-based; conditions: Parabacteroides distasonis, 48 h
[2] = tested on: Clostridium perfringens NCCLS control strain 4418; assay: microbe, parasite or virus in culture; format: cell-based; conditions: 48 h
[3] = tested on: Erwinia atroseptica 1159 (4446); assay: Inhibition zone, agar plate; format: cell-based; conditions: Pectobacterium atrosepticum, 15λ, read-out: Inhibition Zone Diameter
[4] = tested on: Klebsiella pneumoniae 1264; assay: Inhibition zone, agar plate; format: cell-based; conditions: 15λ, read-out: Inhibition Zone Diameter
Ent. cloacae P99- 2647 = assay: Agar dilution, trypticase soy agar; conditions: Enterobacter cloacae, P992647, 20 h
Proteus vulgaris 1012 = assay: Inhibition zone, agar plate; format: cell-based
[5] = tested on: C. difficile Clind^r 4273; assay: Anaerobic agar dilution, Wilkens-Chalgren agar; format: cell-based; conditions: Clostridioides difficile, 48 h
[6] = tested on: Staphylococcus aureus 108 (6538P); assay: Inhibition zone, agar plate; format: cell-based; conditions: 15λ, read-out: Inhibition Zone Diameter
[7] = tested on: B. distasonis Pen^r, Fox^r, Clind^r 4361; assay: Anaerobic agar dilution, Wilkens-Chalgren agar; format: cell-based; conditions: Parabacteroides distasonis, 48 h
Ps. aeruginosa 4279 = assay: Agar dilution, antagonist-free medium; conditions: Pseudomonas aeruginosa, 4279, 20 h
C. perfringens 3509 = assay: microbe, parasite or virus in culture; format: cell-based; conditions: Clostridium perfringens, 3509, 48 h
[8] = tested on: Streptococcus agalactiae 2875; assay: Inhibition zone, agar plate; format: cell-based; conditions: 15λ, read-out: Inhibition Zone Diameter
C. difficile Fox^r 4380 = assay: Anaerobic agar dilution, Wilkens-Chalgren agar; format: cell-based; conditions: Clostridioides difficile, 48 h
Prot. vulgaris 2829 = assay: Agar dilution, trypticase soy agar; conditions: Proteus vulgaris, 2829, 20 h
Bacillus sp. 633 = assay: Inhibition zone, agar plate; format: cell-based; conditions: 15λ, read-out: Inhibition Zone Diameter
Procedure: (§1) A crystalline sample of L-654,040 was dissolved in distilled water. Aliquots of 15λ were deposited on the surface of each seeded nutrient agar susceptibility test plate, followed by overnight incubation Plates were then measured for activity by determining the inhibition zone diameter under the previously placed 15λ aliquot.

Candida albicans 992 = assay: Inhibition zone, agar plate; format: cell-based; conditions: 15λ, read-out: Inhibition Zone Diameter
Procedure: as §1

Ser. marcescens 2840 = assay: Agar dilution, trypticase soy agar; conditions: Serratia marcescens, 2840, 20 h
B. asaccharolyticus 4271 = assay: Anaerobic agar dilution, Wilkens-Chalgren agar; format: cell-based; conditions: Porphyromonas asaccharolytica, 4271, 48 h
Sal. typhimurium 3860 = assay: Agar dilution, antagonist-free medium; conditions: Salmonella enterica, 20 h
C. ramosum 4272 = assay: Anaerobic agar dilution, Wilkens-Chalgren agar; format: cell-based; conditions: Thomasclavelia ramosa, 4272, 48 h
[9] = tested on: Pasteurella multocida (4678); assay: Protection and survival of infected mice; conditions: intraperitoneal
[10] = tested on: Brucella bronchiseptica 965; assay: microbe, parasite or virus in culture; format: cell-based; conditions: Bordetella bronchiseptica, 965, read-out: Inhibition Zone Diameter
[11] = tested on: Salmonella gallinarum 1287; assay: Inhibition zone, agar plate; format: cell-based; conditions: Salmonella enterica, 15λ, read-out: Inhibition Zone Diameter
[12] = tested on: Pseudomonas aeruginosa 2824; assay: Inhibition zone, agar plate; format: cell-based; conditions: 15λ, read-out: Inhibition Zone Diameter
[13] = tested on: Pseudomonas stutzeri 1231 (11607); assay: Inhibition zone, agar plate; format: cell-based; conditions: Stutzerimonas stutzeri, 15λ, read-out: Inhibition Zone Diameter
Prot. morganii Sm^r 2833 = assay: Agar dilution, trypticase soy agar; conditions: Morganella morganii, 20 h
Aerobacter aerogenes 835 = assay: Inhibition zone, agar plate; format: cell-based; conditions: Klebsiella aerogenes, 15λ, read-out: Inhibition Zone Diameter
[14] = tested on: B. thetalotamicron Clind^r 4362; assay: Anaerobic agar dilution, Wilkens-Chalgren agar; format: cell-based; conditions: 48 h
C. perfringens 3513 = assay: microbe, parasite or virus in culture; format: cell-based; conditions: Clostridium perfringens, 3513, 48 h
[15] = tested on: Escherichia coli 60 (9637); assay: Inhibition zone, agar plate; format: cell-based; conditions: 15λ, read-out: Inhibition Zone Diameter
[16] = tested on: Proteus vulgaris 838 (21100); assay: Inhibition zone, agar plate; format: cell-based; conditions: 15λ, read-out: Inhibition Zone Diameter
Ent. cloacae P99+ 2646 = assay: Agar dilution, trypticase soy agar; conditions: Enterobacter cloacae, 20 h
E. coli 2891 = assay: Agar dilution, antagonist-free medium; conditions: Escherichia coli, 2891, 20 h
[17] = tested on: Peptostreptococcus anaerobius 3282; assay: Anaerobic agar dilution, Wilkens-Chalgren agar; format: cell-based; conditions: Peptostreptococcus anaerobius, 3282, 48 h

C[C@H](CNC(=O)[C@H]1N=C(c2cccc(O)c2O)O[C@@H]1C)C(=O)N[C@@H]1CCCN(O)C1=O [L-654,040, 2-(2,3-dihydroxyphenyl)-4,5-dihydro-N-[3-[(1-hydroxy-2-oxo-3(R)-piperidinyl)-amino]-2(R)-methyl-3-oxopropyl]-5R-methyl-4S-oxazolecarboxamide]
MIC [1]: > 128 µg/mL | MIC [2]: 64 µg/mL (≈ 147 µM) | zone of inhibition at 500 µg/mL ([3]; 0.5 mg/ml in distilled H2O): 0 mm | zone of inhibition at 2000 µg/mL ([3]; 2 mg/ml in distilled H2O): 0 mm | zone of inhibition at 500 µg/mL ([4]; 0.5 mg/ml in distilled H2O): 0 mm | zone of inhibition at 2000 µg/mL ([4]; 2 mg/ml in distilled H2O): 0 mm | MIC (Ent. cloacae P99- 2647): > 128 µg/mL | zone of inhibition at 500 µg/mL (Proteus vulgaris 1012; Proteus vulgaris, 1012, read-out: Inhibition Zone Diameter): 24 mm | zone of inhibition at 2000 µg/mL (Proteus vulgaris 1012; Proteus vulgaris, 1012, 2 mg/ml in distilled H2O, 15λ, read-out: Inhibition Zone Diameter): 34 mm | MIC [5]: 128 µg/mL (≈ 295 µM) | solubility (Solubility in water; boiling water): ~10000 µg/mL (≈ 23000 µM) | solubility in water (Solubility in water; water, for dosing solutions): limited solubility | zone of inhibition at 500 µg/mL ([6]; 0.5 mg/ml in distilled H2O): 0 mm | zone of inhibition at 2000 µg/mL ([6]; 2 mg/ml in distilled H2O): 18 mm | MIC [7]: > 128 µg/mL | MIC (Ps. aeruginosa 4279): > 256 µg/mL | MIC (C. perfringens 3509): 64 µg/mL (≈ 147 µM) | zone of inhibition at 500 µg/mL ([8]; 0.5 mg/ml in distilled H2O): 12 mm | zone of inhibition at 2000 µg/mL ([8]; 2 mg/ml in distilled H2O): 13 mm | MIC (C. difficile Fox^r 4380): 128 µg/mL (≈ 295 µM) | MIC (Prot. vulgaris 2829): > 128 µg/mL | zone of inhibition at 500 µg/mL (Bacillus sp. 633; 0.5 mg/ml in distilled H2O): 23 mm | zone of inhibition at 2000 µg/mL (Bacillus sp. 633; 2 mg/ml in distilled H2O): 28 mm | zone of inhibition at 500 µg/mL (Candida albicans 992; 0.5 mg/ml in distilled H2O): 16 mm | zone of inhibition at 2000 µg/mL (Candida albicans 992; 2 mg/ml in distilled H2O): 24 mm | MIC (Ser. marcescens 2840): > 128 µg/mL | MIC (B. asaccharolyticus 4271): > 128 µg/mL | MIC (Sal. typhimurium 3860): > 256 µg/mL | MIC (C. ramosum 4272): 64 µg/mL (≈ 147 µM) | protection against infection [9]: did not protect | statistical significance of prolonged survival ([9]; two Pasteurella tests): statistically significant at one level in two Pasteurella tests | survival time ([9]; 160 mg/kg x 2): prolongation of survival time was observed; also recorded: did prolong the survival time; also recorded: increases survival time | zone of inhibition at 500 µg/mL [10]: 16 mm | zone of inhibition at 2000 µg/mL [10]: 24 mm | zone of inhibition at 500 µg/mL ([11]; 0.5 mg/ml in distilled H2O): 0 mm | zone of inhibition at 2000 µg/mL ([11]; 2 mg/ml in distilled H2O): 0 mm | zone of inhibition at 500 µg/mL ([12]; 0.5 mg/ml in distilled H2O): 0 mm | zone of inhibition at 2000 µg/mL ([12]; 2 mg/ml in distilled H2O): 0 mm | zone of inhibition at 500 µg/mL ([13]; 0.5 mg/ml in distilled H2O): 12 mm | zone of inhibition at 2000 µg/mL ([13]; 2 mg/ml in distilled H2O): 13 mm | MIC (Prot. morganii Sm^r 2833): > 128 µg/mL | zone of inhibition at 500 µg/mL (Aerobacter aerogenes 835; 0.5 mg/ml in distilled H2O): 0 mm | zone of inhibition at 2000 µg/mL (Aerobacter aerogenes 835; 2 mg/ml in distilled H2O): 0 mm | MIC [14]: > 128 µg/mL | MIC (C. perfringens 3513): 128 µg/mL (≈ 295 µM) | zone of inhibition at 500 µg/mL ([15]; 0.5 mg/ml in distilled H2O): 0 mm | zone of inhibition at 2000 µg/mL ([15]; 2 mg/ml in distilled H2O): 0 mm | zone of inhibition at 500 µg/mL ([16]; 0.5 mg/ml in distilled H2O): 18 mm | zone of inhibition at 2000 µg/mL ([16]; 2 mg/ml in distilled H2O): 31 mm | MIC (Ent. cloacae P99+ 2646): > 128 µg/mL | MIC (E. coli 2891): > 256 µg/mL | MIC [17]: > 128 µg/mL
